Patent publication US20190151290A1 (Hoffmann-La Roche Inc., priority 2015, published 2019)

Tests used:
[1] = test system: patients who had a linear GFR decline (diabetic nephropathy patients); settings: due to hemodynamic response
[2] = test system: patients with type 2 diabetes mellitus and acute coronary syndrome; format: in vivo; settings: aleglitazar 150 μg daily vs placebo, overall population

In the case of CO[C@@H](Cc1ccc(OCCc2nc(-c3ccccc3)oc2C)c2ccsc12)C(=O)O [aleglitazar, (S)-2-methoxy-3-{4-[2-(5-methyl-2-phenyl-oxazol-4-yl)-ethoxy]-benzo[b]thiophen-7-yl}-propionic acid], the “initial drop of GFR” value [1] is reported as “reversible after stopping the drug”, the “hemoglobin A1C” value [2] is reported as “reduced” and the “incidence of cardiovascular death, myocardial infarction or stroke” value [2] is reported as “did not significantly decrease”. For the same compound, the “serum HDL-C level” value [2] was “improved” and the serum triglyceride level [2] was “improved”.
